From patent publication US20230011571A1, “SMALL MOLECULE FURIN INHIBITORS FOR TREATING INFECTIOUS DISEASES” (BP Asset V, Inc., priority 2019, published 2023)

Columns and labels:
Type in all cases: cell-based
[1] = test system: Chikungunya virus (CHIKV); test: microbe, parasite or virus in culture; settings: Chikungunya virus, Vero, 48 h, read-out: Percent viral inhibition CHKV
Marburg virus (MARV) = test: organism not typed; settings: Vero, 72 h, read-out: Percent viral inhibition MARV
dengue virus (DENV) = test: microbe, parasite or virus in culture; settings: Dengue virus, Vero, 120 h, read-out: Percent viral inhibition DENY

Compound | inhibition at 1 µM [1] [%] | inhibition at 1 µM (Marburg virus (MARV)) [%] | inhibition at 1 µM (dengue virus (DENV)) [%]
CC(C)N1CCN(c2cnc(Oc3cc(CN4CCC(CC(=O)O)CC4)cc(-c4cc(Cl)cc(Cl)c4)n3)cn2)CC1 [Example 347, 2-(1-((2-(3,5-dichlorophenyl)-6-((5-(4-isopropylpiperazin-1-yl)pyrazin-2-yl)oxy)pyridin-4-yl)methyl)piperidin-4-yl)acetic acid] | 24.9 | 57.7 | 56.8
O=C(O)CC1CCN(Cc2cc(Oc3cnc(N4CCN5CCC4C5)cn3)nc(-c3cc(Cl)cc(Cl)c3)c2)CC1 (stereo not drawn) [Example 348, 2-(1-((2-((5-(1,4-diazabicyclo[3.2.1]octan-4-yl)pyrazin-2-yl)oxy)-6-(3,5-dichlorophenyl)pyridin-4-yl)methyl)piperidin-4-yl)acetic acid] | 35.8 | 46.6 | 55.8
CC(O)CCN1CCN(c2cnc(Oc3cc(CN4CCC(CC(=O)O)CC4)cc(-c4cc(Cl)cc(Cl)c4)n3)cn2)CC1 (stereo not drawn) [Example 349, 2-(1-((2-(3,5-dichlorophenyl)-6-((5-(4-(3-hydroxybutyl)piperazin-1-yl)pyrazin-2-yl)oxy)pyridin-4-yl)methyl)piperidin-4-yl)acetic acid] | 26.2 | 64.5 | 57.6
CN1CCN(c2cnc(Oc3cc(CN4CCC(CCO)CC4)cc(-c4cc(Cl)cc(Cl)c4)n3)cn2)CC1 [Example 350, 2-(1-((2-(3,5-dichlorophenyl)-6-((5-(4-methylpiperazin-1-yl)pyrazin-2-yl)oxy)pyridin-4-yl)methyl)piperidin-4-yl)ethanol] | 0 | 29.9 | 22.8
CC(CC1CCN(Cc2cc(Oc3cnc(N4CCCN(C)CC4)cn3)nc(-c3cc(Cl)cc(Cl)c3)c2)CC1)C(=O)O (stereo not drawn) [Example 351, 3-(1-((2-(3,5-dichlorophenyl)-6-((5-(4-methyl-1,4-diazepan-1-yl)pyrazin-2-yl)oxy)pyridin-4-yl)methyl)piperidin-4-yl)-2-methylpropanoic acid] | 22.7 | 60.4 | 42.8
CN1C2CC1CN(c1cnc(Oc3cc(CN4CCC(CC(=O)O)CC4)cc(-c4cc(Cl)cc(Cl)c4)n3)cn1)C2 [Example 352, 2-(1-((2-(3,5-dichlorophenyl)-6-((5-(6-methyl-3,6-diazabicyclo[3.1.l]heptan-3-yl)pyrazin-2-yl)oxy)pyridin-4-yl)methyl)piperidin-4-yl)acetic acid] | 31 | 47.9 | 13.1
CN1CCN(c2cnc(Oc3cc(CN4CCC(OC5(C(=O)O)CC5)CC4)cc(-c4cc(Cl)cc(Cl)c4)n3)cn2)CC1 [Example 353, 1-((1-((2-(3,5-dichlorophenyl)-6-((5-(4-methylpiperazin-1-yl)pyrazin-2-yl)oxy)pyridin-4-yl)methyl)piperidin-4-yl)oxy)cyclopropanecarboxylic acid] | 16.6 | 35.4 | 51.3
CS(=O)(=O)CCCN1CCN(c2cnc(Oc3cc(CN4CCC(CC(=O)O)CC4)cc(-c4cc(Cl)cc(Cl)c4)n3)cn2)CC1 [Example 354, 2-(1-((2-(3,5-dichlorophenyl)-6-((5-(4-(3-(methylsulfonyl)propyl)piperazin-1-yl)pyrazin-2-yl)oxy)pyridin-4-yl)methyl)piperidin-4-yl)acetic acid] | 17.2 | 45.2 | 40.8
CCN1CCCN(c2ccc(Oc3cc(CN4CCC(CC(=O)O)CC4)cc(-c4cc(Cl)cc(Cl)c4)n3)nn2)CC1 [Example 355, 2-(1-((2-(3,5-dichlorophenyl)-6-((6-(4-ethyl-1,4-diazepan-1-yl)pyridazin-3-yl)oxy)pyridin-4-yl)methyl)piperidin-4-yl)acetic acid] | 22 | 52.4 | 30.2
CN1CCCN(c2ccc(Oc3cc(CN4CCC(CC(=O)O)CC4)cc(-c4cc(Cl)cc(Cl)c4)n3)nn2)CC1 [Example 356, 2-(1-((2-(3,5-dichlorophenyl)-6-((6-(4-methyl-1,4-diazepan-1-yl)pyridazin-3-yl)oxy)pyridin-4-yl)methyl)piperidin-4-yl)acetic acid] | 30.8 | 54.3 | 49.3
CN1C[C@@H]2C[C@H]1CN2c1ccc(Oc2cc(CN3CCC(CC(=O)O)CC3)cc(-c3cc(Cl)cc(Cl)c3)n2)nn1 [Example 357, 2-(1-((2-(3,5-dichlorophenyl)-6-((6-((1S,4S)-5-methyl-2,5-diazabicyclo[2.2.1]heptan-2-yl)pyridazin-3-yl)oxy)pyridin-4-yl)methyl)piperidin-4-yl)acetic acid] | 38.6 | 100 | 61.2
CCN1CCN(c2ccc(Oc3cc(CN4CCC(CC(=O)O)CC4)cc(-c4cc(Cl)cc(Cl)c4)n3)nn2)CC1 [Example 358, 2-(1-((2-(3,5-dichlorophenyl)-6-((6-(4-ethylpiperazin-1-yl)pyridazin-3-yl)oxy)pyridin-4-yl)methyl)piperidin-4-yl)acetic acid] | 20.4 | 49 | 67.1
CN1CCN(c2ccc(Oc3cc(CN4CCC(CC(=O)O)CC4)cc(-c4cc(Cl)cc(Cl)c4)n3)nn2)CC1 [Example 359, 2-(1-((2-(3,5-dichlorophenyl)-6-((6-(4-methylpiperazin-1-yl)pyridazin-3-yl)oxy)pyridin-4-yl)methyl)piperidin-4-yl)acetic acid] | 28.9 | 62 | 45.3
CN1CCN(c2ccc(Oc3cc(CN4CCC(CCO)CC4)cc(-c4cc(Cl)cc(Cl)c4)n3)nn2)CC1 [Example 360, 2-(1-((2-(3,5-dichlorophenyl)-6-((6-(4-methylpiperazin-1-yl)pyridazin-3-yl)oxy)pyridin-4-yl)methyl)piperidin-4-yl)ethanol] | 0 | 3.44 | 2.83
CN1CCN(c2ccc(Oc3cc(CN4CC[C@@H]5[C@H](CC4)[C@H]5C(=O)O)cc(-c4cc(Cl)cc(Cl)c4)n3)nn2)CC1 [Example 361, (1R,7S,8r)-4-((2-(3,5-dichlorophenyl)-6-((6-(4-methylpiperazin-1-yl)pyridazin-3-yl)oxy)pyridin-4-yl)methyl)-4-azabicyclo[5.1.0]octane-8-carboxylic acid] | 26.6 | 42 | 12.1
CN1CCCN(c2ccc(Oc3cc(CN4CC[C@@H]5[C@H](CC4)[C@H]5C(=O)O)cc(-c4cc(Cl)cc(Cl)c4)n3)nn2)CC1 [Example 362, (1R,7S,8r)-4-((2-(3,5-dichlorophenyl)-6-((6-(4-methyl-1,4-diazepan-1-yl)pyridazin-3-yl)oxy)pyridin-4-yl)methyl)-4-azabicyclo[5.1.0]octane-8-carboxylic acid] | 14.9 | 50.9 | 50.2
CC(=O)NCC1CCN(Cc2cc(Oc3ccc(N4CCN(CC(C)C(=O)O)CC4)nn3)nc(-c3cc(Cl)cc(Cl)c3)c2)CC1 (stereo not drawn) [Example 363, 3-(4-(6-((4-((4-(acetamidomethyl)piperidin-1-yl)methyl)-6-(3,5-dichlorophenyl)pyridin-2-yl)oxy)pyridazin-3-yl)piperazin-1-yl)-2-methylpropanoic acid] | 0 | 2.8 | 0
C[C@H](CC1CCN(Cc2cc(Oc3ccc(N4CCN(C)CC4)nn3)nc(-c3cc(Cl)cc(Cl)c3)c2)CC1)C(=O)O [Example 364, (R)-3-(1-((2-(3,5-dichlorophenyl)-6-((6-(4-methylpiperazin-1-yl)pyridazin-3-yl)oxy)pyridin-4-yl)methyl)piperidin-4-yl)-2-methylpropanoic acid] | 31.4 | 47.6 | 40
C[C@@H](CC1CCN(Cc2cc(Oc3ccc(N4CCN(C)CC4)nn3)nc(-c3cc(Cl)cc(Cl)c3)c2)CC1)C(=O)O [Example 365, (S)-3-(1-((2-(3,5-dichlorophenyl)-6-((6-(4-methylpiperazin-1-yl)pyridazin-3-yl)oxy)pyridin-4-yl)methyl)piperidin-4-yl)-2-methylpropanoic acid] | 0 | 17.4 | 32.4
CCN1C[C@@H]2C[C@H]1CN2c1ccc(Oc2cc(CN3CCC(CC(=O)O)CC3)cc(-c3cc(Cl)cc(Cl)c3)n2)nn1 [Example 366, 2-(1-((2-(3,5-dichlorophenyl)-6-((6-((1S,4S)-5-ethyl-2,5-diazabicyclo[2.2.1]heptan-2-yl)pyridazin-3-yl)oxy)pyridin-4-yl)methyl)piperidin-4-yl)acetic acid] | 6.17 | 23.1 | 48.5
CC(=O)N[C@H]1[C@@H]2CCN(Cc3cc(Oc4cnc(N5CCN(CCC(=O)O)CC5)nc4)nc(-c4cc(Cl)cc(Cl)c4)c3)CC[C@@H]21 [Example 367, 3-(4-(5-((4-(((1R,7S,8r)-8-acetamido-4-azabicyclo[5.1.0]octan-4-yl)methyl)-6-(3,5-dichlorophenyl)pyridin-2-yl)oxy)pyrimidin-2-yl)piperazin-1-yl)propanoic acid] | 27.4 | 54.7 | 15
COC(=O)C(C)CCN1CCN(c2ncc(Oc3cc(CN4CCC(CNC(C)=O)CC4)cc(-c4cc(Cl)cc(Cl)c4)n3)cn2)CC1 (stereo not drawn) [Example 368, methyl4-(4-(5-((4-((4-(acetamidomethyl)piperidin-1-yl)methyl)-6-(3,5-dichlorophenyl)pyridin-2-yl)oxy)pyrimidin-2-yl)piperazin-1-yl)-2-methylbutanoate] | 32.5 | 65.4 | 65.8
